Patent US20080119496A1, “7-Substituted Purine Derivatives for Immunosuppression” (PHARMACOPEIA DRUG DISCOVERY, INC., priority 2006, published 2008)

Key:
[1] = tested on: IL-2-induced IFN-γ production; experiment: IL-2-Induced IFN-γ Production in the Mouse; assay type: in vivo; details: po, 1 h, by gavage one hour before IL-2, serum IFN-γ, female BALB/c mice, read-out: inhibition of IL-2-induced IFN-gamma production
Description: Administration of IL-2 leads to an increase in serum IFN-γ in the mouse due to NK secretion of the cytokine (Thornton S, Kuhn K A, Finkelman F D and Hirsch R. NK cells secrete high levels of IFN-γ in response to in vivo administration of IL-2. Eur J Immunol 2001 31:3355-3360). The experiment was carried out essentially according to the protocol in Thornton et al. and the test compounds were administered in order to determine the level of inhibition attained. In summary, female BALB/c mice were fasted for 12-18 hours before a study but had free access to water at all times. Test compounds were administered by gavage one hour before intraperitoneal injection of IL-2 and capture antibody. At termination of the studies, the mice were sacrificed by carbon dioxide inhalation, terminal blood samples were collected by cardiac puncture and serum was generated. Serum was stored frozen until it was assayed for IFN-γ, as described by the kit manufacturer (BD Pharmingen™, San Diego, Calif.).

heart transplantation = details: orally active; Changelian, et al., 2003; cited from earlier work
kidney transplantation = details: orally active; Changelian, et al., 2003; cited from earlier work
[2] = tested on: spontaneous autoimmune diabetes; details: NOD mouse; cited from earlier work
GVHD = details: reviewed in Cetkovic-Cvrlje and Ucken, 2004; cited from earlier work

Row | Compound | inhibition at 30 mg/kg [1] | also measured
1 | Cn1c(=O)n([C@@H]2CCOc3c(F)cccc32)c2nc(-n3cnc4ccc(C#N)cc43)ncc21 [Example 505] | > 40% | 
2 | Cn1c(=O)n(C2CCOc3ccc(F)cc32)c2nc(-n3cnc4ccc(C#N)cc43)ncc21 (stereo not shown) [Example 504] | > 40% | 
3 | C[C@@H]1CCN(C(=O)CC#N)C[C@@H]1N(C)c1ncnc2[nH]ccc12 [CP-690,550] |  | animal survival / immunosuppression (heart transplantation): prolong animal survival; animal survival / immunosuppression (kidney transplantation): prolong animal survival
4 | C[C@@H]1CCN(C(=O)CC#N)C[C@@H]1N(C)c1ncnc2[nH]ccc12 [CP690550] | 96% | 
5 | O=c1[nH]c2cnc(-n3cnc4ccccc43)nc2n1[C@@H]1CCOc2c(F)cccc21 [Example 16, 2-(1H-Benzo[d]imidazol-1-yl)-9-((R)-8-fluorochroman-4-yl)-7H-purin-8(9H)-one] | > 40% | 
6 | COc1cc2ncnc(Nc3ccc(O)cc3)c2cc1OC [JANEX-1] |  | spontaneous autoimmune diabetes development [2]: prevent spontaneous autoimmune diabetes development; severity of GVHD (GVHD): attenuate the severity of GVHD
7 | Cn1c(=O)n(C2CCOc3c(F)cc(F)cc32)c2nc(-n3cnc4ccc(C#N)cc43)ncc21 (stereo not shown) [Example 501] | > 40% | 
8 | O=c1[nH]c2cnc(-n3cnc4cc(F)ccc43)nc2n1[C@@H]1CCOc2c(F)cccc21 [Example 28, 2-(5-Fluoro-1H-benzo[d]imidazol-1-yl)-9-((R)-8-fluorochroman-4-yl)-7H-purin-8(9H)-one] | > 40% | 
